The text below walks through data of patent US7507739B2, “6-[(substituted)phenyl]triazolopyrimidines as anticancer agents” (Wyeth, priority 2003, dated 2009).

The test system of one assay is tubulin heterodimer. Put plainly: Competitive binding test, [3H]colchicine. Also noted: species or system bovine. To be noted: [3H]colchicine 50 nM. As for the experimental part:
(§1) Medium is RPMI-1640 with L-glutamine, supplemented with 10% heat-inactivated fetal calf serum, 100 units/ml penicillin, and 100 μg/ml streptomycin (Gibco, Grand Island, N.Y.). Microtubule-associated protein (MAP)-rich tubulin, containing about 70% tubulin and 30% MAPs (#ML113), and highly purified tubulin (>99% pure, #TL238), both from bovine brain, are obtained from Cytoskeleton, Inc., Denver, Colo. PEM buffer (80 mM piperazine-N,N′-bis[2-ethanesulfonic acid], pH 6.9, 1 mM ethylene glycol-bis(β-aminoethyl ether)-N,N,N′,N′-tetraacetic acid, 1 mM magnesium chloride) and guanosine 5′-triphosphate (GTP) are also obtained from Cytoskeleton. [3H]paclitaxel, specific activity 14.7 Ci/mmol, is purchased from Moravek Biochemicals (Brea, Calif.). [^3H]vinblastine, specific activity 9.60 Ci/mmol and MicroSpin G-50 columns are obtained from Amersham Biosciences (Piscataway, N.J.). […] Other reagents are obtained from Sigma (St. Louis, Mo.).
(§2) The binding of examples of this invention to highly purified tubulin is studied by competitive inhibition methods. […] To study possible competition at the taxane site, on the other hand, polymerized tubulin (microtubules) is used because paclitaxel binds preferentially to microtubules.
Highly purified tubulin is dissolved in PEM buffer without GTP and used at a final concentration of 1.0 to 1.3 mg/ml (10 to 13 μM). […] These solutions are incubated at 24° for 1 hr and then applied to MicroSpin G-50 columns which are centrifuged for 2 min at 3000 rpm in an Eppendorf 5415C microfuge. An aliquot of each column effluent (containing tubulin and bound radioligand) is mixed with scintillation fluid and counted in a liquid scintillation spectrometer. […] The ability of the competitor to inhibit the binding of the radioligand is expressed as a percentage of control binding in the absence of any competitor.

Another assay deals with microtubules. Put plainly: Competitive binding test, [3H]paclitaxel. Also noted: species or system bovine. To be noted: [3H]paclitaxel 2.1 μM, competitor 20 μM (5 μM for unlabeled paclitaxel). As for the experimental part:
as §1, §2
For competition with [^3H]paclitaxel, highly purified tubulin is dissolved in PEM buffer containing 0.75 M glutamate and 25 μM dideoxy-GTP; final protein concentration is 0.25 to 0.35 mg/mL (2.5 to 3.5 μM). These conditions foster the rapid formation of short, stable microtubule polymers (Hamel, E., del Campo, A. A., and Lin, C. M. Stability of tubulin polymers formed with dideoxyguanosine nucleotides in the presence and absence of microtubule-associated proteins. J. Biol. Chem., 259: 2501-2508, 1984). This solution is incubated for 30 min at 37° to allow microtubules to form. Then [^3H]paclitaxel (final concentration of 2.1 μM, 1.2 Ci/mmol) and competitor (final concentration of 20 μM, except 5 μM for unlabeled paclitaxel) are added to aliquots of the polymerized tubulin solution and incubation at 37° is continued for another 30 min. […] The reactions are then centrifuged at top speed in an Eppendorf 5415C microfuge for 20 min at room temperature in order to pellet the microtubule protein. Triplicate aliquots of each supernatant are mixed with scintillation fluid and counted in a liquid scintillation spectrometer. From the amount of radioactivity in the supernatants and the measured total starting radioactivity, the amount of [^3H]paclitaxel bound to pelleted microtubule protein is calculated. The ability of each competitor to inhibit radioligand binding to pelleted protein is expressed as a percent of controls without any competitor.

The subject of a further assay is HL-60/ADR cells. Put plainly: MTS cytotoxicity test with HL-60/ADR cells (MRP1). The class given is cell-based, human. Conditions: for IC50: Homo sapiens, HL60/ADR, read-out: IC50 HL-60/ADR; for Ratio: IC50 on HL-60/ADR cells/IC50 on HL-60 cells. From the text:
Human cancer cell lines, unless otherwise noted, are obtained from the American Type Culture Collection (Rockville, Md.). The following drug-sensitive parental cell lines, and their derived drug-resistant counterparts, are obtained from the originators as listed: (a) S1 (parental line from a subclone of human colon carcinoma line LS174T) and derived S1-M1-3.2 (herein called S1-M1) which expresses the MXR drug transporter protein, are provided by Dr. L. Greenberger, Wyeth Research (Rabindran, S. K., He, H., Singh, M., Brown, E., Collins, K. I., Annable, T., and Greenberger, L. M. Reversal of a novel multidrug resistance mechanism in human colon carcinoma cells by fumitremorgin C. Cancer Res., 58:5850-5858,1998); (b) parental HL-60 human promyelocytic leukemia line and derived HL-60/ADR, which expresses the MRP1 drug transporter protein, are provided by Dr. M. Center, University of Kansas (McGrath, T., and Center, M. S. Adriamycin resistance in HL60 cells in the absence of detectable P-glycoprotein. Biochem. Biophys. […] J. Biol. Chem., 261: 7762-7770,1986) via Dr. L. Greenberger, Wyeth Research.
The assay, which is sold in kit form by Promega (Madison, Wis.; CellTiter 96 AQueous Non-Radioactive Cell Proliferation Assay), is based on the conversion by viable cells, but not by dead cells, of the tetrazolium salt, MTS (3-(4,5-dimethylthiazol-2-yl)-5-(3-carboxymethoxyphenyl)-2-(4-sulphophenyl)-2H-tetrazolium, inner salt), into a water-soluble colored formazan which is detected by spectrophotometry. Compounds are tested at nine concentrations, in order to determine IC50 values. For the test procedure, cells are harvested by trypsinization (or, in the case of non-adherent cells, by simple resuspension), washed, counted and distributed to wells of 96-well flat-bottom microtiter plates at 1000 cells per well in 200 μL of medium. In addition, one row of wells on a separate plate received cells as above (“time 0” plate). All plates are incubated at 37° in humidified 5% CO2 in air for about 24 hr.
On day 2, compounds for test are diluted and added to wells. Compounds are dissolved in DMSO at 10 mg/mL. For each compound, nine serial 2-fold dilutions are prepared in DMSO. Ten μL of each dilution in DMSO is transferred to 100 μL of medium, mixed well, and then 5 μL of this dilution is transferred in quadruplicate to wells containing cells. […] Plates are returned to the incubator for three days. At the time of drug addition to the experimental plates, the MTS assay is run on the “time 0” plate. This produced the “time 0 MTS value” which is related to the number of viable cells per well at the time of drug addition.
After three days of culture with test compounds (day 5 overall), the MTS assay is done on all wells of the experimental plates. The absorbance values of the quadruplicate sample wells are averaged and divided by the average of the “time 0” values. […] The nine values for each compound are plotted against concentration, and the concentration that produced a relative color yield half way between the maximum and minimum is taken as the IC50 value.
HL-60/ADR cells overexpress the multidrug resistance protein MRP1 which mediates resistance to some chemotherapeutics (Gottesman, M. M., Fojo, T., and Bates, S. E. Multidrug resistance in cancer: role of ATP-dependent transporters. Nature Rev. Cancer, 2: 48-58, 2002). The IC50 values of representative examples of this invention, as well as reference compounds, on HL-60/ADR are compared to values on the sensitive parental HL-60 line.
For orientation: Formazan colour is commonly taken as a measure of viable cells.

Read-outs that look alike come from different tables or passages of the source.

Take `C[C@H](Nc1c(-c2c(F)cc(OCCCN(C)C)cc2F)c(Cl)nc2ncnn12)C(F)(F)F.Cl` [Example 1a, 5-chloro-6-{4-[3-(dimethylamino)propoxy]-2,6-difluorophenyl}-N-[(1S)-2,2,2-trifluoro-1-methylethyl][1,2,4]triazolo[1,5-a]pyrimidin-7-amine hydrogen chloride Salt]: in the assay with tubulin heterodimer, the “[3H]Colchicine binding, percent of control without competitor, Mean” value was determined as 129%. Further, the “[3H]Paclitaxel binding, percent of control without competitor, Mean” value with microtubules is reported as 108%. In addition, in the assay on HL-60/ADR cells, the IC50 came out at 63 nM and the Ratio is 0.89.

Regarding `CNCCCOc1cc(F)c(-c2c(Cl)nc3ncnn3c2N[C@@H](C)C(F)(F)F)c(F)c1.Cl` [Example 2a, 5-Chloro-6-{2,6-difluoro-4-[3-(methylamino)propoxy]phenyl}-N-[(1S)-2,2,2-trifluoro-1-methylethyl][1,2,4]triazolo[1,5-a]pyrimidin-7-amine hydrogen chloride], the “[3H]Colchicine binding, percent of control without competitor, Mean” value in the assay with tubulin heterodimer worked out at 122%. The “[3H]Paclitaxel binding, percent of control without competitor, Mean” value with microtubules is on record as 104%. In the assay on HL-60/ADR cells, the IC50 was 47 nM and the Ratio was 1.1.

With `CNCCCOc1cc(F)c(-c2c(Cl)nc3ncnn3c2NCC(F)(F)F)c(F)c1.Cl` [Example 3a, 5-Chloro-6-{2,6-difluoro-4-[3-(methylamino)propoxy]phenyl}-N-(2,2,2-trifluoroethyl)[1,2,4]triazolo[1,5-a]pyrimidin-7-amine hydrogen chloride Salt], in the assay on tubulin heterodimer, the “[3H]Colchicine binding, percent of control without competitor, Mean” value is listed as 134%. In addition, the “[3H]Paclitaxel binding, percent of control without competitor, Mean” value in the assay on microtubules is 105%. Also, the IC50 in the assay with HL-60/ADR cells (HL-60/ADR cells, MTS) is 21 nM. Moreover, the Ratio in the assay with HL-60/ADR cells stood at 0.81.

Take `CN(C)CCCOc1cc(F)c(-c2c(Cl)nc3ncnn3c2NCC(F)(F)F)c(F)c1.Cl` [Example 4a, 5-Chloro-6-{4-[3-(dimethylamino)propoxy]-2,6-difluorophenyl}-N-(2,2,2-trifluoroethyl)[1,2,4]triazolo[1,5-a]pyrimidin-7-amine Hydrogen chloride Salt]: the “[3H]Colchicine binding, percent of control without competitor, Mean” value in the assay with tubulin heterodimer was 134%. Moreover, the “[3H]Paclitaxel binding, percent of control without competitor, Mean” value in the assay on microtubules worked out at 104%. For the same compound, the IC50 in the assay on HL-60/ADR cells (HL-60/ADR cells, MTS) is 34 nM. In the assay on HL-60/ADR cells, the Ratio turned out to be 0.65.

Consider `C[C@H](Nc1c(-c2c(F)cc(OCCCO)cc2F)c(Cl)nc2ncnn12)C(F)(F)F` [Example 20, 3-[4-(5-Chloro-7-{[(1S)-2,2,2-trifluoro-1-methylethyl]amino}[1,2,4]triazolo[1,5-a]pyrimidin-6-yl)-3,5-difluorophenoxy]propan-1-ol], for which the “[3H]Colchicine binding, percent of control without competitor, Mean” value in the assay on tubulin heterodimer stood at 98%. The “[3H]Paclitaxel binding, percent of control without competitor, Mean” value in the assay on microtubules is 104%. In addition, the IC50 in the assay with HL-60/ADR cells (HL-60/ADR cells, MTS) worked out at 74 nM. In the assay on HL-60/ADR cells, the Ratio is recorded as 0.48.

On to `C[C@H](Nc1c(-c2c(F)cc(OCCCN(C)C)cc2F)c(Br)nc2ncnn12)C(F)(F)F` [Example 25, 5-Bromo-6-{4-[3-(dimethylamino)propoxy]-2,6-difluorophenyl}-N-[(1S)-2,2,2-trifluoro-1-methylethyl][1,2,4]triazolo[1,5-a]pyrimidin-7-amine], for which, in the assay on tubulin heterodimer, the “[3H]Colchicine binding, percent of control without competitor, Mean” value is recorded as 126%. For the same compound, the “[3H]Paclitaxel binding, percent of control without competitor, Mean” value with microtubules stood at 99%. Besides, the IC50 in the assay on HL-60/ADR cells (HL-60/ADR cells, MTS) was determined as 68 nM. Besides, the Ratio with HL-60/ADR cells is on record as 0.65.

In the case of `OCCCOc1cc(F)c(-c2c(Cl)nc3ncnn3c2C2CCCCCC2)c(F)c1` [Example 30, 3-[4-(5-Chloro-7-cycloheptyl[1,2,4]triazolo[1,5-a]pyrimidin-6-yl)-3,5-difluorophenoxy]propan-1-ol], the “[3H]Colchicine binding, percent of control without competitor, Mean” value in the assay with tubulin heterodimer is 112%. The “[3H]Paclitaxel binding, percent of control without competitor, Mean” value with microtubules is recorded as 91%. For the same compound, the IC50 with HL-60/ADR cells (HL-60/ADR cells, MTS) turned out to be 52 nM. Moreover, the Ratio in the assay with HL-60/ADR cells is 0.94.

Turning to `CNCCCOc1cc(F)c(-c2c(Cl)nc3ncnn3c2C2CCCCCC2)c(F)c1.O=C(O)C(F)(F)F` [Example 32, 3-[4-(5-Chloro-7-cycloheptyl[1,2,4]triazolo[1,5-a]pyrimidin-6-yl)-3,5-difluorophenoxy]-N-methylpropan-1-amine trifluoroacetic acid salt], the “[3H]Colchicine binding, percent of control without competitor, Mean” value with tubulin heterodimer stood at 94%. In the assay with microtubules, the “[3H]Paclitaxel binding, percent of control without competitor, Mean” value was found to be 93%. For the same compound, the IC50 in the assay with HL-60/ADR cells (HL-60/ADR cells, MTS) is 6.6 nM. For the same compound, the Ratio in the assay on HL-60/ADR cells was 0.92.

Consider `CC(=O)O[C@H]1C(=O)[C@@]2(C)[C@H]([C@H](OC(=O)c3ccccc3)[C@]3(O)C[C@H](OC(=O)[C@H](O)[C@@H](NC(=O)c4ccccc4)c4ccccc4)C(C)=C1C3(C)C)[C@]1(OC(C)=O)CO[C@@H]1C[C@@H]2O` [Paclitaxel, reference compound], for which, in the assay with tubulin heterodimer, the “[3H]Colchicine binding, percent of control without competitor, Mean” value was 93%. Besides, in the assay on microtubules, the “[3H]Paclitaxel binding, percent of control without competitor, Mean” value is 35%. In addition, the IC50 with HL-60/ADR cells (HL-60/ADR cells, MTS) turned out to be 6.4 nM. In the assay with HL-60/ADR cells, the Ratio worked out at 1.1.

Take `CC[C@]1(O)C[C@H]2CN(CCc3c([nH]c4ccccc34)[C@@](C(=O)OC)(c3cc4c(cc3OC)N(C=O)[C@H]3[C@@](O)(C(=O)OC)[C@H](OC(C)=O)[C@]5(CC)C=CCN6CC[C@]43[C@@H]65)C2)C1` [Vincristine, reference compound]: the “[3H]Colchicine binding, percent of control without competitor, Mean” value with tubulin heterodimer was found to be 99%. Further, the “[3H]Paclitaxel binding, percent of control without competitor, Mean” value with microtubules was 22%. Moreover, the IC50 with HL-60/ADR cells (HL-60/ADR cells, MTS) worked out at 20 nM. In addition, the Ratio with HL-60/ADR cells is reported as 8.2.
